{"source": "patent US8044103B2", "about": "“Cyclic dipeptides and azetidinone compounds and their use in treating CNS injury and neurodegenerative disorders” (Georgetown University, priority 1998, dated 2011)", "key": {"[1]": {"test_system": "mice following controlled cortical impact injury (CCI)", "assay": "Morris watermaze, working memory version, after controlled cortical impact injury", "format": "in vivo, Male C57Bl/6 mice", "details": "1.0 mg/kg at 30 min following CCI; day 24 after trauma; p<0.05", "procedure": "FIG. 7 provides a graph illustrating the latency of finding a hidden platform in a working memory version of the Morris watermaze for uninjured control mice (sham+saline) and mice treated with normal saline (CCI+saline) or 1.0 mg/kg Compound 2a (CCI+Compound 2a) at 30 min. following controlled cortical injury (CCI). Filled bars (▪) represent the first of two consecutive trials; unfilled bars ( ? ) represent the second of two consecutive trials. Results are expressed as daily means±SEM for each group over four trial pairs. * indicates p<0.05 with respect to uninjured controls (sham+saline); # indicates p<0.05 with respect to injured saline-treated controls (CCI+saline).\nConscious mice were placed in a mouse restrainer and injected via the lateral tail vein with either normal saline (injured controls; n=6), 1 mg/kg Compound 2a (n=8), Compound 10b (n=6), Compound 11b (n=6) or Compound 14c (n=6) at 30 minutes following controlled cortical impact injury (CCI). The values for n represents the number of mice in the particular treatment group. The investigator was blinded to drug treatment both at the time of surgery and for neurological and behavioral scoring.\nTo determine the effect of CCI on working memory, the daily mean latency (+SEM) to find the goal platform on both trials was calculated for each group. […]"}, "[2]": {"test_system": "rats following moderate fluid percussion injury", "assay": "Mortality after moderate fluid percussion injury", "format": "in vivo, Male Sprague-Dawley rats", "details": "1 mg/kg i.v. 30 min following moderate fluid percussion injury; died before the end of the study; saline 21.4% and 37.5%", "procedure": "Rats were anesthetized with sodium pentobarbital (70 mg/kg i.p.), intubated, and implanted with femoral venous and arterial catheters. Brain temperature was assessed indirectly through a thermister in the temporalis muscle. Body temperature was maintained through a feedback-controlled heating blanket. Blood pressure was continuously monitored, and arterial blood gases analyzed periodically. After the animal was placed in a stereotaxic frame, the scalp and temporal muscle were reflected, and a small craniotomy (5 mm) located midway between the lambda and bregma sutures over the left parietal cortex allowed insertion of a Leur-Loc that is cemented in place. The fluid-percussion head injury device, manufactured by the Medical College of Virginia, consists of a plexiglass cylindrical reservoir filled with isotonic saline; one end includes a transducer that is mounted and connected to a 5 mm tube that attaches through a male Leur-Loc fitting to the female Leur-Loc cemented at the time of surgery. A pendulum strikes a piston at the opposite end of the device, producing a pressure pulse of approximately 22 msec duration, leading to deformation of underlying brain. The degree of injury is related to the pressure pulse, expressed in atmospheres (atm): 2.6 atm in our laboratory produces a moderate injury with regard to neurological and histological deficit. Sham (control) animals undergo anesthesia and surgery without fluid percussion brain injury. […]\nContinuous variables compared across groups were examined using an analysis of variance (ANOVA) followed by Bonferroni correction (rightin reflex). Continuous variables subjected to repeated measurements over a period of time (cardiovascular and core temperature measurements) were analyzed using a repeated measurements ANOVA followed by Tukey's pairwise comparison at each time point. Ordinal measurements (composite neurological scores) were evaluated using the non-parametric Kruskal-Wallis ANOVA with individual, non-parametric Mann-Whitney U-tests. […]"}}, "data": [{"smiles": "O=C1NC2(CCCCC2)C(=O)N2CCC[C@@H]12", "note": "[Compound 2a, Cyclo[(1-Amino-1-Cyclohexane-Carboxylic Acid)-Pro]]", "values": [{"measurement": "latency to goal platform, first of trial pair (reference memory), versus untreated injured animals", "setting": "[1]", "value": "significantly improved"}, {"measurement": "latency to goal platform, second of trial pair (working memory), versus untreated injured animals", "setting": "[1]", "value": "significantly improved"}, {"measurement": "mortality rate", "setting": "[2]", "value": 25, "unit": "%"}]}]}
